Broadly, the pEC50 is the negative decadic logarithm of the EC50, by convention in mol/L.

Results on 13 molecules are retold here after US20240300928A1, “GLP-1 RECEPTOR AGONIST, PHARMACEUTICAL COMPOSITION COMPRISING SAME, AND METHOD FOR PREPARING SAME” (LG CHEM, LTD., priority 2021, published 2024).

pEC50: −log10 of the molar value.

In this assay the target is T1, hGLP-1R (Homo sapiens, UniProt P43220).
T1 construct: expressed in transfected cells; host or cells: CHO-K1 (hGLP-1R and CRE-luciferase reporter)
T1 sequence (P43220 24-463): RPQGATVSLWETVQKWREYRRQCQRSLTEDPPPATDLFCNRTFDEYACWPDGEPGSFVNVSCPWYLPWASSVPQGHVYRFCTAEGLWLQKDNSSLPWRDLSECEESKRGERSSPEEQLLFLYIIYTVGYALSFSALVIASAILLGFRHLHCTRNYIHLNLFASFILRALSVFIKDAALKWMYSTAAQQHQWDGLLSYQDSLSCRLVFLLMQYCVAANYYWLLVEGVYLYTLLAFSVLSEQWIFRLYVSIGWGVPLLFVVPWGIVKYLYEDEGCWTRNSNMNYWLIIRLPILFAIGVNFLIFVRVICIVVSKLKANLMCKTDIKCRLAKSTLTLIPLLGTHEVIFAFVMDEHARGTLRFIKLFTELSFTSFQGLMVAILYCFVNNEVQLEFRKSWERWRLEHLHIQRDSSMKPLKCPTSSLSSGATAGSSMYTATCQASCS
As to the kind of experiment: GLP-1R agonist activity measurement (cell-based luciferase assay). The conditions noted are these: CHO-K1/hGLP-1R/CRE-luciferase cell line, 4 h treatment, Bright-Glo luminescence. The protocol:
Experimental Example 1: GLP-1R Agonist Activity Measurement (Cell-Based Luciferase Assay)
The CHO-K1/hGLP-1R/CRE-luciferase cell line was seeded at 15000 cells in a 96-well plate. As a medium, Ham's F-12 Nutrient medium was used. After culturing for 18 hours in a 5% CO2 incubator maintained at 37° C., the drug was treated. Each drug plated at 9 concentrations was dissolved in DMEM/F-12+1% FBS medium and treated with 100 ul of each cell line. After culturing for 4 h, 30 ul of assay reagent was added to each well using the Bright-Glo™ luciferase assay system kit. After the plate was stored at room temperature for 15 min, luminescence was measured with a SpectraMax M5 instrument.
Regarding `O=C(O)c1ccc2nc(Cc3ccc(-c4cccnc4OCc4ccc(Cl)cc4F)cc3)n(C[C@@H]3CCO3)c2c1` [Example 1, (S)-2-(4-(2-((4-chloro-2-fluorobenzyl)oxy)pyridin-3-yl)benzyl)-1-(oxetan-2-ylmethyl)-1H-benzo[d]imidazol-6-carboxylic acid], the pEC50 is 9.50. In turn, `CC1(c2ccc(Cl)cc2F)Oc2cccc(-c3ccc(Cc4nc5ccc(C(=O)O)cc5n4C[C@@H]4CCO4)cc3)c2O1` (stereo partly drawn) [Example 2, 2-(4-(2-(4-chloro-2-fluorophenyl)-2-methylbenzo[d][1,3]dioxol-4-yl)benzyl)-1-(((S)-oxetan-2-yl)methyl)-1H-benzo[d]imidazol-6-carboxylic acid] gave a pEC50 of 9.97.

`CC1(c2ccc(Cl)cc2F)Oc2cccc(-c3ccc(Cc4nc5ccc(C(=O)O)cc5n4C[C@@H]4CCO4)cc3F)c2O1` (stereo partly drawn) [Example 3, 2-(4-(2-(4-chloro-2-fluorophenyl)-2-methylbenzo[d][1,3]dioxol-4-yl)-3-fluorobenzyl)-1-(((S)-oxetan-2-yl)methyl)-1H-benzo[d]imidazol-6-carboxylic acid] had a negative logarithm of the EC50 (pEC50) of 10.39.

In turn, `CC1(c2ccc(Cl)cc2F)Oc2cccc(-c3ccc(Cc4nc5ccc(C(=O)O)cc5n4Cc4cnco4)cc3)c2O1` (stereo not shown) [Example 4, 2-(4-(2-(4-chloro-2-fluorophenyl)-2-methylbenzo[d][1,3]dioxol-4-yl)benzyl)-1-(oxazol-5-ylmethyl)-1H-benzo[d]imidazol-6-carboxylic acid] showed a pEC50 of 9.56. The same measure for `CC1(c2ccc(Cl)cc2F)Oc2cccc(-c3ccc(Cc4nc5ccc(C(=O)O)cc5n4Cc4cnco4)cc3F)c2O1` (stereo not shown) [Example 5, 2-(4-(2-(4-chloro-2-fluorophenyl)-2-methylbenzo[d][1,3]dioxol-4-yl)-3-fluorobenzyl)-1-(oxazol-5-ylmethyl)-1H-benzo[d]imidazol-6-carboxylic acid]: 9.80; for `O=C(O)c1ccc2nc(Cc3ccc(-c4cccnc4OCc4ccc(Cl)cc4F)cc3)n(Cc3cnco3)c2c1` [Example 6, 2-(4-(2-((4-chloro-2-fluorobenzyl)oxy)pyridin-3-yl)benzyl)-1-(oxazol-5-ylmethyl)-1H-benzo[d]imidazol-6-carboxylic acid]: 8.46; for `CCCn1cnnc1Cn1c(Cc2ccc(-c3cccnc3OCc3ccc(Cl)cc3F)cc2)nc2ccc(C(=O)O)cc21` [Example 7, 2-(4-(2-((4-chloro-2-fluorobenzyl)oxy)pyridin-3-yl)benzyl)-1-((4-propyl-4H-1,2,4-triazol-3-yl)methyl)-1H-benzo[d]imidazol-6-carboxylic acid]: less than 7.10. Under `CCCn1cnnc1Cn1c(Cc2ccc(-c3cccc4c3OC(C)(c3ccc(Cl)cc3F)O4)cc2)nc2ccc(C(=O)O)cc21` (stereo not shown) [Example 8, 2-(4-(2-(4-chloro-2-fluorophenyl)-2-methylbenzo[d][1,3]dioxol-4-yl)benzyl)-1-((4-propyl-4H-1,2,4-triazol-3-yl)methyl)-1H-benzo[d]imidazol-6-carboxylic acid] stands 9.04; under `CCCn1cnnc1Cn1c(Cc2ccc(-c3cccc4c3OC(C)(c3ccc(Cl)cc3F)O4)c(F)c2)nc2ccc(C(=O)O)cc21` (stereo not shown) [Example 9, 2-(4-(2-(4-chloro-2-fluorophenyl)-2-methylbenzo[d][1,3]dioxol-4-yl)-3-fluorobenzyl)-1-((4-propyl-4H-1,2,4-triazol-3-yl)methyl)-1H-benzo[d]imidazol-6-carboxylic acid], 9.11; under `CCn1cncc1Cn1c(Cc2ccc(-c3cccc4c3OC(C)(c3ccc(Cl)cc3F)O4)cc2)nc2ccc(C(=O)O)cc21` (stereo not shown) [Example 10, 2-(4-(2-(4-chloro-2-fluorophenyl)-2-methylbenzo[d][1,3]dioxol-4-yl)benzyl)-1-((1-ethyl-1H-imidazol-5-yl)methyl)-1H-benzo[d]imidazol-6-carboxylic acid], 10.67. Under `CCn1cncc1Cn1c(Cc2ccc(-c3cccc4c3OC(C)(c3ccc(Cl)cc3F)O4)c(F)c2)nc2ccc(C(=O)O)cc21` (stereo not shown) [Example 11, 2-(4-(2-(4-chloro-2-fluorophenyl)-2-methylbenzo[d][1,3]dioxol-4-yl)-3-fluorobenzyl)-1-((1-ethyl-1H-imidazol-5-yl)methyl)-1H-benzo[d]imidazol-6-carboxylic acid] stands 10.59; under `CC1(c2ccc(Cl)cc2F)Oc2cccc(-c3ccc(Cc4nc5ccc(C(=O)O)cc5n4C[C@@H]4CCCO4)cc3)c2O1` (stereo partly drawn) [Example 12, 2-(4-(2-(4-chloro-2-fluorophenyl)-2-methylbenzo[d][1,3]dioxol-4-yl)benzyl)-1-(((S)-tetrahydrofuran-2-yl)methyl)-1H-benzo[d]imidazol-6-carboxylic acid], 9.65. `O=C(O)c1ccc2nc(Cc3ccc(-c4cccc(OCC56CCC(CC5)CC6)n4)cc3)n(C[C@@H]3CCO3)c2c1` [Example 13, (S)-2-(4-(6-(bicyclo[2.2.2]octan-1-ylmethoxy)pyridin-2-yl)benzyl)-1-(oxetan-2-ylmethyl)-1H-benzo[d]imidazol-6-carboxylic acid] showed a pEC50 of less than 7.10.
